≈ marks a conversion by molar mass, not a printed value. Calls of active or inactive are those of the source. The calls are words filed in the database; no cut-off is given here.

In assay [1] the test system is Candida albicans. Kind of assay: Antifungal activity against Candida albicans MTCC 227 assessed as growth inhibition at 4 mg/mL after 24 hr by agar well diffusion method. It is filed as functional. The note with it: for zone of inhibition at 4000 µg/mL: MTCC 227, 24 h, read-out: DIZ.
Assay [2] deals with Saccharomyces cerevisiae. Nature of the assay: Antifungal activity against Saccharomyces cerevisiae MTCC 170 assessed as growth inhibition at 4 mg/mL after 24 hr by agar well diffusion method. It is filed as functional. The note with it: for zone of inhibition at 4000 µg/mL: MTCC 170, 24 h, read-out: DIZ.
The next assay relates to Escherichia coli. Nature of the assay: Antibacterial activity against Escherichia coli MTCC 1652 assessed as growth inhibition at 4 mg/mL after 24 hr by agar well diffusion method. The class given is functional, organism-based.
The subject of assay [3] is Bacillus subtilis. Kind of assay: Antibacterial activity against Bacillus subtilis MTCC 121 assessed as growth inhibition at 4 mg/mL after 24 hr by agar well diffusion method. The note with it: for zone of inhibition at 4000 µg/mL: MTCC 121, 24 h, read-out: DIZ. The class given is functional.
The test system of assay [4] is Staphylococcus aureus. Nature of the assay: Antibacterial activity against Staphylococcus aureus MTCC 96 assessed as growth inhibition at 4 mg/mL after 24 hr by agar well diffusion method. It is filed as functional. The conditions noted are these: for zone of inhibition at 4000 µg/mL: MTCC 96, 24 h, read-out: DIZ.
Assay [5] relates to Staphylococcus aureus. Kind of assay: Antibacterial activity against Staphylococcus aureus MTCC 96 assessed as growth inhibition after 24 hr by agar well diffusion method. The conditions noted are these: MTCC 96, 24 h. It is filed as functional.
The test system of assay [6] is Bacillus subtilis. Kind of assay: Antibacterial activity against Bacillus subtilis MTCC 121 assessed as growth inhibition after 24 hr by agar well diffusion method. The note with it: MTCC 121, 24 h. It is filed as functional.
The test system of assay [7] is Candida albicans. Kind of assay: Antifungal activity against Candida albicans MTCC 227 assessed as growth inhibition after 24 hr by agar well diffusion method. It is filed as functional. The note with it: MTCC 227, 24 h.
Assay [8] has as its system Saccharomyces cerevisiae. Nature of the assay: Antifungal activity against Saccharomyces cerevisiae MTCC 170 assessed as growth inhibition after 24 hr by agar well diffusion method. The class given is functional. The conditions noted are these: MTCC 170, 24 h.

For `NS(=O)(=O)c1ccc(-n2nc(-c3ccccc3)c3c(C(F)(F)F)cc(-c4ccc(Cl)cc4)nc32)cc1`, the “growth inhibition (GI)” value in the assay on Candida albicans [1], in the assay with Saccharomyces cerevisiae [2] and in the assay with Escherichia coli was “inactive” in each case. Besides, the zone of inhibition at 4000 µg/mL in the assay on Bacillus subtilis [3] amounted to 16.3 mm; with Staphylococcus aureus [4], 15 mm. Further, the MIC in the assay on Staphylococcus aureus [5] and in the assay on Bacillus subtilis [6] was 128 µg/mL (≈ 242 µM) each time.

For the compound `Cc1ccc(-c2nn(-c3ccc(S(N)(=O)=O)cc3)c3nc(-c4ccc5ccccc5c4)cc(C(F)(F)F)c23)cc1`, the zone of inhibition at 4000 µg/mL came out at 18.3 mm with Candida albicans [1], 15.6 mm in the assay on Saccharomyces cerevisiae [2], 15.6 mm with Bacillus subtilis [3] and 15.6 mm in the assay with Staphylococcus aureus [4]. Also, the “growth inhibition (GI)” value in the assay on Escherichia coli was “inactive”. Moreover, the MIC amounted to 128 µg/mL (≈ 229 µM) in the assay on Staphylococcus aureus [5], 32 µg/mL (≈ 57.3 µM) with Candida albicans [7], 32 µg/mL (≈ 57.3 µM) in the assay on Saccharomyces cerevisiae [8] and 128 µg/mL (≈ 229 µM) in the assay on Bacillus subtilis [6].

`NS(=O)(=O)c1ccc(-n2nc(-c3ccccc3)c3c(C(F)(F)F)cc(-c4ccc(F)cc4)nc32)cc1`: the zone of inhibition at 4000 µg/mL stood at 14.6 mm in the assay on Candida albicans [1], 15.3 mm in the assay with Saccharomyces cerevisiae [2], 19.6 mm with Bacillus subtilis [3] and 17.6 mm in the assay on Staphylococcus aureus [4]. Moreover, in the assay with Escherichia coli, the “growth inhibition (GI)” value is “inactive”. In addition, the MIC with Staphylococcus aureus [5] was found to be 128 µg/mL (≈ 250 µM); in the assay on Candida albicans [7] it was 128 µg/mL (≈ 250 µM); in the assay on Saccharomyces cerevisiae [8] it was 64 µg/mL (≈ 125 µM); in the assay with Bacillus subtilis [6], 64 µg/mL (≈ 125 µM).

As for `Cc1ccc(-c2cc(C(F)(F)F)c3c(-c4ccc(C)cc4)nn(-c4ccc(S(N)(=O)=O)cc4)c3n2)cc1`, the “growth inhibition (GI)” value with Candida albicans [1], in the assay with Saccharomyces cerevisiae [2] and in the assay with Escherichia coli was “inactive” each time. Also, the zone of inhibition at 4000 µg/mL with Bacillus subtilis [3] came to 16.3 mm; in the assay with Staphylococcus aureus [4], 15.3 mm. Moreover, the MIC in the assay with Staphylococcus aureus [5] and with Bacillus subtilis [6] was 128 µg/mL (≈ 245 µM) in each case.

Regarding `NS(=O)(=O)c1ccc(-n2nc(-c3ccc(Cl)cc3)c3c(C(F)(F)F)cc(-c4ccccc4)nc32)cc1`, the “growth inhibition (GI)” value with Candida albicans [1], with Saccharomyces cerevisiae [2], in the assay with Escherichia coli, in the assay with Bacillus subtilis [3] and in the assay with Staphylococcus aureus [4] was “inactive” in each case.

Turning to `C[C@@H]1[C@H](O)[C@@H](C)/C=C/C=C/C=C/C=C/C=C/C=C/C=C/[C@H](O[C@@H]2O[C@H](C)[C@@H](O)[C@H](N)[C@@H]2O)C[C@@H]2O[C@](O)(C[C@@H](O)C[C@@H](O)[C@H](O)CC[C@@H](O)C[C@@H](O)CC(=O)O[C@H]1C)C[C@H](O)[C@H]2C(=O)O` [AMPHOTERICIN B], the zone of inhibition at 4000 µg/mL with Candida albicans [1] came out at 16.6 mm; in the assay on Saccharomyces cerevisiae [2] it was 19.3 mm. In addition, the MIC with Candida albicans [7] and in the assay on Saccharomyces cerevisiae [8] was 20 µg/mL (≈ 21.6 µM) throughout.

As for `COc1ccc(-c2cc(C(F)(F)F)c3c(-c4ccc(C)cc4)nn(-c4ccc(S(N)(=O)=O)cc4)c3n2)cc1`, the “growth inhibition (GI)” value in the assay with Candida albicans [1], in the assay with Saccharomyces cerevisiae [2] and in the assay with Escherichia coli was “inactive” throughout. The zone of inhibition at 4000 µg/mL with Bacillus subtilis [3] amounted to 17.3 mm; in the assay on Staphylococcus aureus [4], 14.6 mm. In addition, the MIC in the assay on Staphylococcus aureus [5] was determined as 256 µg/mL (≈ 475 µM); in the assay on Bacillus subtilis [6], 128 µg/mL (≈ 238 µM).

Turning to `NS(=O)(=O)c1ccc(-n2nc(-c3ccc(Cl)cc3)c3c(C(F)(F)F)cc(-c4ccc(F)cc4)nc32)cc1`, the “growth inhibition (GI)” value in the assay on Candida albicans [1], in the assay on Saccharomyces cerevisiae [2], with Escherichia coli, in the assay with Bacillus subtilis [3] and with Staphylococcus aureus [4] was “inactive” in each case.

`Cc1ccc(-c2nn(-c3ccc(S(N)(=O)=O)cc3)c3nc(-c4ccccc4)cc(C(F)(F)F)c23)cc1`: the “growth inhibition (GI)” value in the assay with Candida albicans [1], in the assay on Saccharomyces cerevisiae [2] and in the assay on Escherichia coli was “inactive” each time. Moreover, the zone of inhibition at 4000 µg/mL with Bacillus subtilis [3] stood at 17.6 mm; in the assay with Staphylococcus aureus [4], 18.3 mm. Moreover, the minimal inhibitory concentration (MIC) in the assay on Staphylococcus aureus [5] turned out to be 64 µg/mL (≈ 126 µM); in the assay on Bacillus subtilis [6], 128 µg/mL (≈ 252 µM).

On to `Cc1ccc(-c2nn(-c3ccc(S(N)(=O)=O)cc3)c3nc(C)cc(C(F)(F)F)c23)cc1`, for which the “growth inhibition (GI)” value in the assay on Candida albicans [1], in the assay with Saccharomyces cerevisiae [2] and with Escherichia coli was “inactive” in each case. In addition, the zone of inhibition at 4000 µg/mL in the assay with Bacillus subtilis [3] was found to be 16.3 mm; in the assay with Staphylococcus aureus [4], 15.3 mm. The MIC with Staphylococcus aureus [5] and with Bacillus subtilis [6] was 128 µg/mL (≈ 287 µM) each time.

For the compound `NS(=O)(=O)c1ccc(-n2nc(-c3ccc(Cl)cc3)c3c(C(F)(F)F)cc(-c4ccc(Cl)cc4)nc32)cc1`, the “growth inhibition (GI)” value with Candida albicans [1], in the assay with Saccharomyces cerevisiae [2], in the assay with Escherichia coli, with Bacillus subtilis [3] and in the assay with Staphylococcus aureus [4] was “inactive” in each case.

For the compound `Cc1ccc(-c2nn(-c3ccc(S(N)(=O)=O)cc3)c3nc(C(F)(F)F)cc(C(F)(F)F)c23)cc1`, the “growth inhibition (GI)” value in the assay with Candida albicans [1], in the assay on Saccharomyces cerevisiae [2] and in the assay with Escherichia coli was “inactive” throughout. The zone of inhibition at 4000 µg/mL in the assay with Bacillus subtilis [3] is 16.6 mm; with Staphylococcus aureus [4], 15.6 mm. The MIC in the assay with Staphylococcus aureus [5] and in the assay on Bacillus subtilis [6] was 128 µg/mL (≈ 256 µM) each time.

For the compound `NS(=O)(=O)c1ccc(-n2nc(-c3ccc(Cl)cc3)c3c(C(F)(F)F)cc(-c4ccc(Br)cc4)nc32)cc1`, the “growth inhibition (GI)” value in the assay with Candida albicans [1], with Saccharomyces cerevisiae [2], in the assay on Escherichia coli, with Bacillus subtilis [3] and with Staphylococcus aureus [4] was “inactive” each time.

For `Cc1ccc(-c2cc(C(F)(F)F)c3c(-c4ccc(Cl)cc4)nn(-c4ccc(S(N)(=O)=O)cc4)c3n2)cc1`, the “growth inhibition (GI)” value with Candida albicans [1], in the assay on Saccharomyces cerevisiae [2], with Escherichia coli, in the assay on Bacillus subtilis [3] and in the assay on Staphylococcus aureus [4] was “inactive” each time.

For the compound `Cc1ccc(-c2nn(-c3ccc(S(N)(=O)=O)cc3)c3nc(-c4ccc(Cl)cc4)cc(C(F)(F)F)c23)cc1`, the “growth inhibition (GI)” value in the assay on Candida albicans [1], in the assay with Saccharomyces cerevisiae [2] and in the assay with Escherichia coli was “inactive” throughout. Besides, the zone of inhibition at 4000 µg/mL in the assay with Bacillus subtilis [3] was determined as 16.3 mm; in the assay with Staphylococcus aureus [4], 15.6 mm. Besides, the MIC in the assay with Staphylococcus aureus [5] and with Bacillus subtilis [6] was 128 µg/mL (≈ 236 µM) each time.

As for `Cc1ccc(-c2nn(-c3ccc(S(N)(=O)=O)cc3)c3nc(-c4ccc(Br)cc4)cc(C(F)(F)F)c23)cc1`, the “growth inhibition (GI)” value in the assay on Candida albicans [1], with Saccharomyces cerevisiae [2] and in the assay on Escherichia coli was “inactive” each time. The zone of inhibition at 4000 µg/mL in the assay with Bacillus subtilis [3] is 15.6 mm; in the assay on Staphylococcus aureus [4], 14.3 mm. In addition, the figures for the MIC in the assay on Staphylococcus aureus [5] and with Bacillus subtilis [6] were 256 µg/mL (≈ 436 µM) and 128 µg/mL (≈ 218 µM), respectively.

On to `NS(=O)(=O)c1ccc(-n2nc(-c3ccc(Cl)cc3)c3c(C(F)(F)F)cc(-c4ccc5ccccc5c4)nc32)cc1`, for which the “growth inhibition (GI)” value in the assay with Candida albicans [1], in the assay with Saccharomyces cerevisiae [2] and in the assay on Escherichia coli was “inactive” in each case. Moreover, the zone of inhibition at 4000 µg/mL in the assay on Bacillus subtilis [3] worked out at 16.3 mm; in the assay with Staphylococcus aureus [4], 15.3 mm. Moreover, the MIC in the assay with Staphylococcus aureus [5] and in the assay on Bacillus subtilis [6] was 128 µg/mL (≈ 221 µM) throughout.

As to `NS(=O)(=O)c1ccc(-n2nc(-c3ccccc3)c3c(C(F)(F)F)cc(-c4ccc5ccccc5c4)nc32)cc1`, the “growth inhibition (GI)” value in the assay with Candida albicans [1], in the assay on Saccharomyces cerevisiae [2] and in the assay on Escherichia coli was “inactive” each time. For the same compound, the results for the zone of inhibition at 4000 µg/mL in the assay with Bacillus subtilis [3] and with Staphylococcus aureus [4] were 14.6 mm and 13.6 mm, respectively. Moreover, the MIC with Staphylococcus aureus [5] and in the assay with Bacillus subtilis [6] was 256 µg/mL (≈ 470 µM) throughout.

`COc1ccc(-c2cc(C(F)(F)F)c3c(-c4ccc(Cl)cc4)nn(-c4ccc(S(N)(=O)=O)cc4)c3n2)cc1`: the “growth inhibition (GI)” value with Candida albicans [1], in the assay on Saccharomyces cerevisiae [2], in the assay with Escherichia coli, in the assay on Bacillus subtilis [3] and in the assay with Staphylococcus aureus [4] was “inactive” throughout.

With `Cc1cc(C(F)(F)F)c2c(-c3ccc(Cl)cc3)nn(-c3ccc(S(N)(=O)=O)cc3)c2n1`, the “growth inhibition (GI)” value in the assay on Candida albicans [1], in the assay with Saccharomyces cerevisiae [2] and with Escherichia coli was “inactive” throughout. Besides, the figures for the zone of inhibition at 4000 µg/mL in the assay on Bacillus subtilis [3] and in the assay on Staphylococcus aureus [4] were 17.6 mm and 18.6 mm, respectively. Moreover, the MIC in the assay with Staphylococcus aureus [5] is 64 µg/mL (≈ 137 µM); in the assay with Bacillus subtilis [6], 128 µg/mL (≈ 274 µM).

Consider `Cc1ccc(-c2nn(-c3ccc(S(N)(=O)=O)cc3)c3nc(-c4ccc(F)cc4)cc(C(F)(F)F)c23)cc1`, for which the “growth inhibition (GI)” value with Candida albicans [1], with Saccharomyces cerevisiae [2] and in the assay with Escherichia coli was “inactive” throughout. Moreover, the results for the zone of inhibition at 4000 µg/mL in the assay with Bacillus subtilis [3] and with Staphylococcus aureus [4] were 15.6 mm and 13.6 mm, respectively. Further, the MIC in the assay with Staphylococcus aureus [5] is more than 256 µg/mL; in the assay with Bacillus subtilis [6], 128 µg/mL (≈ 243 µM).

The record behind these values is ChEMBL document CHEMBL3045429, “Exploration of antimicrobial potential of pyrazolo[3,4-b]pyridine scaffold bearing benzenesulfonamide and trifluoromethyl moieties” (2013).
